Experiment in all cases: inhibition of tumour cell growth, NCI panel, 48 h
Experiment [1] has as its system HCT-15.
Experiment [2] concerns SK-MEL-5.
For experiment [3], the system named is NCI-H460.
In experiment [4] the test system is U-251.
For experiment [5], the system named is SF-268.
Experiment [6] has as its system UO-31.
In experiment [7] the test system is LOX IMVI.
Experiment [8] concerns CAKI-1.
Experiment [9] has as its system UACC-62.
For experiment [10], the system named is SF-539.
Experiment [11] has as its system 786-0.
The subject of experiment [12] is SNB-75.
The subject of experiment [13] is SN12C.
Experiment [14] relates to Malme-3M.
Experiment [15] relates to NCI-H23.
The test system of experiment [16] is MOLT-4.
Experiment [17] concerns RXF 393.
Experiment [18] concerns TK-10.

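Growth conditions: 96-well plates. Treatment: test compound, 48 hours, 5 concentrations. Analysis: linear interpolation between bracketing concentrations; unreached endpoints set to highest concentration. The concentration for 50% growth inhibition is given as GI50.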 Activity calls are given as the source filed them. Rule as the data show it: active = GI50 up to about 1.1 µM and inactive = higher.

Regarding `CC1(C)CC(/C=C2/OC(=O)c3ccccc32)=C(C(N)=O)C(=O)O1`, the GI50 is over 100 µM in experiment [1]; > 100 µM (inactive) in [2]; > 100 µM (inactive) in [3]; > 100 µM (inactive) in experiment [4]; > 100 µM (inactive) in experiment [5]; 83.9 µM (inactive) in experiment [6]. In addition, the GI50 in experiment [7], in [8], in experiment [9], in experiment [10], in [11] and in [12] was > 100 µM (inactive) in each case. The GI50 in experiment [13], in experiment [14], in experiment [15] and in experiment [16] was > 100 µM (inactive) in each case.
`OCCc1cnco1`: the GI50 in experiment [2], in experiment [3], in experiment [4], in [5], in [7] and in [9] was > 100 µM (inactive) each time. In addition, the GI50 in experiment [10], in experiment [11], in experiment [12], in experiment [17], in experiment [13] and in [15] was > 100 µM (inactive) each time. The GI50 in [18] and in [16] was > 100 µM (inactive) each time.
Consider `COc1ccc(C(=O)C(C(=O)C(=O)Nc2nc3ccc(OC)cc3s2)c2ccc(OC)cc2)cc1` (configuration not stated), for which the GI50 was over 100 µM in experiment [1]; 55.2 µM (inactive) in experiment [2]; > 100 µM (inactive) in experiment [3]; > 100 µM (inactive) in experiment [4]; > 100 µM (inactive) in experiment [5]; 89.5 µM (inactive) in experiment [6]. In addition, the GI50 in experiment [7] was > 100 µM (inactive); in experiment [8], > 100 µM (inactive); in experiment [9], > 100 µM (inactive); in experiment [10] it was > 100 µM (inactive); in experiment [11], > 100 µM (inactive); in experiment [12], 26.5 µM (inactive). Further, the GI50 in experiment [13], in experiment [14], in experiment [15], in experiment [18] and in [16] was > 100 µM (inactive) in each case.
With `COc1ccc(N2C(=O)[C@@H](N=[N+]=[N-])[C@@H]2[C@H]2COC(C)(C)O2)cc1`, the GI50 is over 100 µM in experiment [1]; > 100 µM (inactive) in experiment [2]; > 100 µM (inactive) in experiment [3]; > 100 µM (inactive) in experiment [4]; > 100 µM (inactive) in experiment [5]; > 100 µM (inactive) in [6]. Moreover, the GI50 is > 100 µM (inactive) in experiment [8]; 75 µM (inactive) in experiment [9]; > 100 µM (inactive) in experiment [10]; > 100 µM (inactive) in experiment [11]; > 100 µM (inactive) in experiment [12]; > 100 µM (inactive) in experiment [17]. For the same compound, the GI50 in experiment [13], in experiment [14], in experiment [15] and in experiment [16] was > 100 µM (inactive) in each case.
Turning to `N#CC(C(=O)CCCC(=O)Nc1ccc(Cl)cc1Cl)c1ccc(Cl)cc1` (configuration not stated), the GI50 in [1] is over 100 µM; in experiment [3], > 100 µM (inactive); in [5] it was > 100 µM (inactive); in [6], > 100 µM (inactive); in experiment [7], > 100 µM (inactive); in experiment [8] it was > 100 µM (inactive). For the same compound, the GI50 in experiment [9], in experiment [10], in experiment [11], in [12], in experiment [13] and in experiment [14] was > 100 µM (inactive) throughout. The GI50 in experiment [15], in experiment [18] and in [16] was > 100 µM (inactive) in each case.
With `CN1C(=O)C2C3C=C4c5ccccc5N(c5ccccc5)C4(C2C1=O)[C@H]1C(=O)N(C)C(=O)[C@@H]31` (some centres not stated), the GI50 in [3], in [4], in experiment [5], in [6], in experiment [7] and in experiment [9] was > 100 µM (inactive) throughout. Moreover, the GI50 in [11], in experiment [12], in experiment [13], in [14], in experiment [15] and in experiment [18] was > 100 µM (inactive) each time. Also, the GI50 in experiment [16] is > 100 µM (inactive).
For `COC1OC(CO)C(O)C(NC(=O)N(C)N=O)C1O` (configuration not stated), the GI50 in [1] was over 100 µM; in [2] it was > 100 µM (inactive); in experiment [3], > 100 µM (inactive); in [4] it was > 100 µM (inactive); in experiment [5], > 100 µM (inactive); in experiment [6] it was > 100 µM (inactive). Moreover, the GI50 in [8], in [10], in experiment [11], in [12], in experiment [17] and in experiment [13] was > 100 µM (inactive) throughout. In addition, the GI50 in experiment [14], in experiment [15], in experiment [18] and in [16] was > 100 µM (inactive) throughout.
For the compound `COc1ccc(C(=O)NCCN(C)C)c2nc3ccccc3nc12`, the GI50 in experiment [1] was 3.66 µM; in experiment [2], 4.81 µM (inactive); in [4] it was 4.79 µM (inactive); in experiment [7] it was 2.01 µM (inactive); in [9], 5.38 µM (inactive); in [10] it was 4.57 µM (inactive). In addition, the GI50 was 9.06 µM (inactive) in experiment [11]; 8.11 µM (inactive) in experiment [12]; 11.4 µM (inactive) in [17]; 3.62 µM (inactive) in experiment [13]; 2.3 µM (inactive) in experiment [14]; 4.72 µM (inactive) in experiment [15]. Also, the GI50 in experiment [18] was 5.18 µM (inactive); in experiment [16], 1.94 µM (inactive).
For the compound `CCOC(=O)N1C(c2ccccc2)C=CC(c2ccccc2)N1C(=O)OCC` (configuration not stated), the GI50 in [1] was over 100 µM; in experiment [2] it was > 100 µM (inactive); in experiment [3], > 100 µM (inactive); in [4], > 100 µM (inactive); in experiment [5], > 100 µM (inactive); in experiment [7], > 100 µM (inactive). The GI50 in experiment [8] is > 100 µM (inactive); in experiment [9], > 100 µM (inactive); in experiment [10], > 100 µM (inactive); in experiment [11], > 100 µM (inactive); in [12], 42.9 µM (inactive); in experiment [17] it was > 100 µM (inactive). The GI50 in [13], in [14], in experiment [15] and in experiment [18] was > 100 µM (inactive) throughout.
In the case of `O=C(O)CNc1c2ccccc2[n+]([O-])c2ccccc12`, the GI50 in [1] is 72.1 µM; in [2] it was 45.5 µM (inactive); in experiment [3], > 100 µM (inactive); in [4], > 100 µM (inactive); in experiment [5] it was > 100 µM (inactive); in experiment [6], 43.4 µM (inactive). The GI50 in experiment [7] was 78.7 µM (inactive); in experiment [8], > 100 µM (inactive); in [9], 67.8 µM (inactive); in [11], > 100 µM (inactive); in experiment [12], 76.2 µM (inactive); in experiment [13], > 100 µM (inactive). The GI50 in experiment [14] was 61.4 µM (inactive); in experiment [15], 60.7 µM (inactive); in [18] it was > 100 µM (inactive); in experiment [16] it was 69.3 µM (inactive).
As to `[N-]=[N+]=NC(CBr)c1cn([C@H]2C[C@H](O)[C@@H](CO)O2)c(=O)[nH]c1=O` (some centres not stated), the GI50 in experiment [1] was over 100 µM; in [2] it was > 100 µM (inactive); in experiment [3], > 100 µM (inactive); in experiment [4], > 100 µM (inactive); in experiment [6], > 100 µM (inactive); in experiment [7] it was > 100 µM (inactive). For the same compound, the GI50 in [8], in experiment [9], in experiment [10], in [11], in experiment [12] and in experiment [17] was > 100 µM (inactive) in each case. The GI50 in experiment [13], in [14], in [15], in experiment [18] and in experiment [16] was > 100 µM (inactive) each time.
As for `Cn1nc(-c2ccccc2)c(C(=O)/C=C/c2ccc(Cl)cc2)c(N2CCOCC2)c1=O`, the GI50 was 2.74 µM in [1]; 4.98 µM (inactive) in experiment [2]; 2.64 µM (inactive) in [3]; 3.37 µM (inactive) in [4]; 3.48 µM (inactive) in experiment [5]; 9.71 µM (inactive) in experiment [6]. The GI50 in [7] was 3.44 µM (inactive); in [8], 0.652 µM (active); in experiment [9] it was 3.27 µM (inactive); in [10] it was 2.5 µM (inactive); in [11], 2.87 µM (inactive); in experiment [17] it was 2.34 µM (inactive). Moreover, the GI50 is 5.7 µM (inactive) in experiment [13], 2.74 µM (inactive) in experiment [15], 7.94 µM (inactive) in experiment [18] and 0.752 µM (active) in experiment [16].
On to `CN(C)CCNC(=O)c1cccc2nc3cc(Cl)ccc3nc12`, for which the GI50 in [1] was 2.43 µM; in [2], 3.19 µM (inactive); in experiment [4], 2.86 µM (inactive); in experiment [6], 4.26 µM (inactive); in [7], 1.26 µM (inactive); in [8], 4.59 µM (inactive). For the same compound, the GI50 in experiment [9] was 3.69 µM (inactive); in [10], 3.12 µM (inactive); in [11], 3.79 µM (inactive); in experiment [12], 2.52 µM (inactive); in experiment [17] it was 2.15 µM (inactive); in experiment [13] it was 2.07 µM (inactive). Moreover, the GI50 in [14] was 1.85 µM (inactive); in experiment [15] it was 2 µM (inactive); in experiment [18], 2.7 µM (inactive); in [16] it was 0.378 µM (active).
